{"source": "ChEMBL document CHEMBL1201862", "about": "“PubChem BioAssay data set” (2004)", "assay_in_all_cases": "growth of human tumour cells (NCI), 48 h", "key": {"A498": {"system": "A498"}, "CAKI-1": {"system": "CAKI-1"}, "COLO 205": {"system": "COLO 205"}, "DU-145": {"system": "DU-145"}, "HCC 2998": {"system": "HCC 2998"}, "HCT-116": {"system": "HCT-116"}, "HCT-15": {"system": "HCT-15"}, "HOP-92": {"system": "HOP-92"}, "HT-29": {"system": "HT-29"}, "IGROV-1": {"system": "IGROV-1"}, "K562": {"system": "K562"}, "KM12": {"system": "KM12"}, "LOX IMVI": {"system": "LOX IMVI"}, "M14": {"system": "M14"}, "MCF7": {"system": "MCF7"}, "MDA-MB-231": {"system": "MDA-MB-231"}, "MDA-MB-435": {"system": "MDA-MB-435"}, "MOLT-4": {"system": "MOLT-4"}, "Malme-3M": {"system": "Malme-3M"}, "NCI-H226": {"system": "NCI-H226"}, "NCI-H23": {"system": "NCI-H23"}, "NCI-H460": {"system": "NCI-H460"}, "NCI/ADR-RES": {"system": "NCI/ADR-RES"}, "OVCAR-8": {"system": "OVCAR-8"}, "SF-295": {"system": "SF-295"}, "SK-MEL-28": {"system": "SK-MEL-28"}, "SK-MEL-5": {"system": "SK-MEL-5"}, "SK-OV-3": {"system": "SK-OV-3"}, "SNB-75": {"system": "SNB-75"}, "T47D": {"system": "T47D"}, "TK-10": {"system": "TK-10"}, "UACC-62": {"system": "UACC-62"}, "UO-31": {"system": "UO-31"}, "786-0": {"system": "786-0"}, "A549": {"system": "A549"}, "ACHN": {"system": "ACHN"}, "CCRF-CEM": {"system": "CCRF-CEM"}, "HL-60": {"system": "HL-60"}, "HOP-62": {"system": "HOP-62"}, "MDA-N": {"system": "MDA-N"}, "NCI-H522": {"system": "NCI-H522"}, "OVCAR-3": {"system": "OVCAR-3"}, "OVCAR-4": {"system": "OVCAR-4"}, "OVCAR-5": {"system": "OVCAR-5"}, "PC-3": {"system": "PC-3"}, "RXF 393": {"system": "RXF 393"}, "SF-268": {"system": "SF-268"}, "SF-539": {"system": "SF-539"}, "SK-MEL-2": {"system": "SK-MEL-2"}, "SN12C": {"system": "SN12C"}, "SNB-19": {"system": "SNB-19"}, "SR": {"system": "SR"}, "SW-620": {"system": "SW-620"}, "U-251": {"system": "U-251"}, "UACC-257": {"system": "UACC-257"}}, "note": "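Exposure lasted 48 hours, with cells grown in 96-well plates and compounds tested at five concentrations. Here, GI50 denotes the concentration required for 50% inhibition of growth.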 Calls of active or inactive are those of the source. Cut-off read from the data, not from the text of the source: active = GI50 up to about 1.1 µM and inactive = higher."}
{"smiles": "OCC1NC(CO)C(O)C1O", "note": "(stereo not drawn)", "values": [{"measurement": "GI50", "setting": "A498", "result": "> 100 µM (inactive)"}, {"measurement": "GI50", "setting": "CAKI-1", "result": "> 100 µM (inactive)"}, {"measurement": "GI50", "setting": "COLO 205", "result": "> 100 µM (inactive)"}, {"measurement": "GI50", "setting": "DU-145", "result": "> 100 µM (inactive)"}, {"measurement": "GI50", "setting": "HCC 2998", "result": "> 100 µM (inactive)"}, {"measurement": "GI50", "setting": "HCT-116", "result": "> 100 µM (inactive)"}, {"measurement": "GI50", "setting": "HCT-15", "result": "> 100", "unit": "µM"}, {"measurement": "GI50", "setting": "HOP-92", "result": "> 100 µM (inactive)"}, {"measurement": "GI50", "setting": "HT-29", "result": "> 100 µM (inactive)"}, {"measurement": "GI50", "setting": "IGROV-1", "result": "> 100 µM (inactive)"}, {"measurement": "GI50", "setting": "K562", "result": "> 100 µM (inactive)"}, {"measurement": "GI50", "setting": "KM12", "result": "> 100 µM (inactive)"}, {"measurement": "GI50", "setting": "LOX IMVI", "result": "> 100 µM (inactive)"}, {"measurement": "GI50", "setting": "M14", "result": "> 100 µM (inactive)"}, {"measurement": "GI50", "setting": "MCF7", "result": "> 100 µM (inactive)"}, {"measurement": "GI50", "setting": "MDA-MB-231", "result": "> 100 µM (inactive)"}, {"measurement": "GI50", "setting": "MDA-MB-435", "result": "> 100 µM (inactive)"}, {"measurement": "GI50", "setting": "MOLT-4", "result": "> 100 µM (inactive)"}, {"measurement": "GI50", "setting": "Malme-3M", "result": "> 100 µM (inactive)"}, {"measurement": "GI50", "setting": "NCI-H226", "result": "> 100 µM (inactive)"}, {"measurement": "GI50", "setting": "NCI-H23", "result": "> 100 µM (inactive)"}, {"measurement": "GI50", "setting": "NCI-H460", "result": "> 100 µM (inactive)"}, {"measurement": "GI50", "setting": "NCI/ADR-RES", "result": "> 100 µM (inactive)"}, {"measurement": "GI50", "setting": "OVCAR-8", "result": "> 100 µM (inactive)"}, {"measurement": "GI50", "setting": "SF-295", "result": "> 100 µM (inactive)"}, {"measurement": "GI50", "setting": "SK-MEL-28", "result": "> 100 µM (inactive)"}, {"measurement": "GI50", "setting": "SK-MEL-5", "result": "> 100 µM (inactive)"}, {"measurement": "GI50", "setting": "SK-OV-3", "result": "> 100 µM (inactive)"}, {"measurement": "GI50", "setting": "SNB-75", "result": "> 100 µM (inactive)"}, {"measurement": "GI50", "setting": "T47D", "result": "> 100 µM (inactive)"}, {"measurement": "GI50", "setting": "TK-10", "result": "> 100 µM (inactive)"}, {"measurement": "GI50", "setting": "UACC-62", "result": "> 100 µM (inactive)"}, {"measurement": "GI50", "setting": "UO-31", "result": "> 100 µM (inactive)"}]}
{"smiles": "COc1ccc(-c2c(C(C)=O)c(C)n(C3OC(COC(C)=O)C(OC(C)=O)C(OC(C)=O)C3OC(C)=O)c(=S)c2C#N)cc1", "note": "(stereo not drawn)", "values": [{"measurement": "GI50", "setting": "786-0", "result": "62.1 µM (inactive)"}, {"measurement": "GI50", "setting": "A498", "result": "> 100 µM (inactive)"}, {"measurement": "GI50", "setting": "A549", "result": "66.2 µM (inactive)"}, {"measurement": "GI50", "setting": "ACHN", "result": "> 100 µM (inactive)"}, {"measurement": "GI50", "setting": "CAKI-1", "result": "28.9 µM (inactive)"}, {"measurement": "GI50", "setting": "CCRF-CEM", "result": "42.3 µM (inactive)"}, {"measurement": "GI50", "setting": "COLO 205", "result": "> 100 µM (inactive)"}, {"measurement": "GI50", "setting": "DU-145", "result": "> 100 µM (inactive)"}, {"measurement": "GI50", "setting": "HCC 2998", "result": "> 100 µM (inactive)"}, {"measurement": "GI50", "setting": "HCT-116", "result": "72.1 µM (inactive)"}, {"measurement": "GI50", "setting": "HCT-15", "result": "> 100", "unit": "µM"}, {"measurement": "GI50", "setting": "HL-60", "result": "63.5 µM (inactive)"}, {"measurement": "GI50", "setting": "HOP-62", "result": "> 100 µM (inactive)"}, {"measurement": "GI50", "setting": "HOP-92", "result": "15 µM (inactive)"}, {"measurement": "GI50", "setting": "HT-29", "result": "> 100 µM (inactive)"}, {"measurement": "GI50", "setting": "IGROV-1", "result": "> 100 µM (inactive)"}, {"measurement": "GI50", "setting": "K562", "result": "68.5 µM (inactive)"}, {"measurement": "GI50", "setting": "KM12", "result": "> 100 µM (inactive)"}, {"measurement": "GI50", "setting": "LOX IMVI", "result": "21.9 µM (inactive)"}, {"measurement": "GI50", "setting": "M14", "result": "> 100 µM (inactive)"}, {"measurement": "GI50", "setting": "MCF7", "result": "> 100 µM (inactive)"}, {"measurement": "GI50", "setting": "MDA-MB-231", "result": "29.1 µM (inactive)"}, {"measurement": "GI50", "setting": "MDA-MB-435", "result": "> 100 µM (inactive)"}, {"measurement": "GI50", "setting": "MDA-N", "result": "> 100 µM (inactive)"}, {"measurement": "GI50", "setting": "MOLT-4", "result": "43 µM (inactive)"}, {"measurement": "GI50", "setting": "Malme-3M", "result": "> 100 µM (inactive)"}, {"measurement": "GI50", "setting": "NCI-H226", "result": "> 100 µM (inactive)"}, {"measurement": "GI50", "setting": "NCI-H23", "result": "> 100 µM (inactive)"}, {"measurement": "GI50", "setting": "NCI-H460", "result": "81.5 µM (inactive)"}, {"measurement": "GI50", "setting": "NCI-H522", "result": "> 100 µM (inactive)"}, {"measurement": "GI50", "setting": "NCI/ADR-RES", "result": "71 µM (inactive)"}, {"measurement": "GI50", "setting": "OVCAR-3", "result": "> 100 µM (inactive)"}, {"measurement": "GI50", "setting": "OVCAR-4", "result": "73.1 µM (inactive)"}, {"measurement": "GI50", "setting": "OVCAR-5", "result": "> 100 µM (inactive)"}, {"measurement": "GI50", "setting": "OVCAR-8", "result": "> 100 µM (inactive)"}, {"measurement": "GI50", "setting": "PC-3", "result": "45.2 µM (inactive)"}, {"measurement": "GI50", "setting": "RXF 393", "result": "80.7 µM (inactive)"}, {"measurement": "GI50", "setting": "SF-268", "result": "> 100 µM (inactive)"}, {"measurement": "GI50", "setting": "SF-295", "result": "69 µM (inactive)"}, {"measurement": "GI50", "setting": "SF-539", "result": "> 100 µM (inactive)"}, {"measurement": "GI50", "setting": "SK-MEL-28", "result": "> 100 µM (inactive)"}, {"measurement": "GI50", "setting": "SK-MEL-2", "result": "29.9 µM (inactive)"}, {"measurement": "GI50", "setting": "SK-MEL-5", "result": "63.1 µM (inactive)"}, {"measurement": "GI50", "setting": "SK-OV-3", "result": "> 100 µM (inactive)"}, {"measurement": "GI50", "setting": "SN12C", "result": "> 100 µM (inactive)"}, {"measurement": "GI50", "setting": "SNB-19", "result": "89.9 µM (inactive)"}, {"measurement": "GI50", "setting": "SNB-75", "result": "75.5 µM (inactive)"}, {"measurement": "GI50", "setting": "SR", "result": "> 100 µM (inactive)"}, {"measurement": "GI50", "setting": "SW-620", "result": "72.8 µM (inactive)"}, {"measurement": "GI50", "setting": "T47D", "result": "> 100 µM (inactive)"}, {"measurement": "GI50", "setting": "TK-10", "result": "> 100 µM (inactive)"}, {"measurement": "GI50", "setting": "U-251", "result": "> 100 µM (inactive)"}, {"measurement": "GI50", "setting": "UACC-257", "result": "> 100 µM (inactive)"}, {"measurement": "GI50", "setting": "UACC-62", "result": "36.6 µM (inactive)"}, {"measurement": "GI50", "setting": "UO-31", "result": "2.15 µM (inactive)"}]}
